Converted amounts (≈) assume the structure as drawn. Like-named read-outs stand apart in the source and are kept apart here.
Experiments:
[1] = tested on: Staphylococcus aureus (ATCC12600); test: Agar well diffusion antimicrobial assay; settings: ATCC12600, 24 h, read-out: inhibition zone, S. aureus
[2] = tested on: Bacillus subtilis (ATCC 6051); test: Agar well diffusion antimicrobial assay; settings: ATCC6051, 24 h, read-out: inhibition zone, B. subtilis
COX-2 = biological target: T1, COX-2 (Ovis aries, UniProt P79208); test: In vitro COX-2 inhibition assay (ovine COX-1/COX-2 assay kit); format: biochemical
T1 construct: purchased
T1 sequence (P79208 17-603): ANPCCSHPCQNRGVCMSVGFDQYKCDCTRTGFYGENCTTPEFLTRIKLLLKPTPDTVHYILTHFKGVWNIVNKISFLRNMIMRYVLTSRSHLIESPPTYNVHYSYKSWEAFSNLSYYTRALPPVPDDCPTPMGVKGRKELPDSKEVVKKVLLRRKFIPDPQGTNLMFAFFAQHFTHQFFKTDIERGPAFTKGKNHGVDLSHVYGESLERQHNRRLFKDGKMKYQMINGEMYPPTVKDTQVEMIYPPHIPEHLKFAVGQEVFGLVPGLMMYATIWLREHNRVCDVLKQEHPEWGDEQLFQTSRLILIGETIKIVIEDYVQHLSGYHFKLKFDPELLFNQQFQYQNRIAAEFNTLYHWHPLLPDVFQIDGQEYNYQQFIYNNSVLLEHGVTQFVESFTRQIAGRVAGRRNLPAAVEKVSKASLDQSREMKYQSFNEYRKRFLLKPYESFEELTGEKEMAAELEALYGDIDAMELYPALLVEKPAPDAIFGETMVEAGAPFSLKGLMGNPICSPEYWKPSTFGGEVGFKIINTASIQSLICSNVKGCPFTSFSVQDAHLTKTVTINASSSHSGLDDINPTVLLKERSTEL
Description: The selectivity index (SI values) was defined as IC50 COX-1/ IC50 COX-2.
Recent studies on COX-1 and COX-2 inhibitors are focused on increasing the selectivity index of drugs towards […] as it acts as the main effector in the mechanism of pain and inflammation.

Candida albicans = test: Agar well diffusion antifungal assay
Aspergillus niger = test: Agar well diffusion antifungal assay
[3] = tested on: Escherichia coli (ATCC 1175); test: Agar well diffusion antimicrobial assay; settings: ATCC1175, 24 h, read-out: inhibition zone, E. coli
[4] = tested on: Klebsiella pneumoniae (ATCC10145); test: Agar well diffusion antimicrobial assay; settings: ATCC10145, 24 h, read-out: inhibition zone, K. pneumoniae
gastric mucosa [5] = test: Histopathology examination of stomach; format: in vivo, rat
Procedure: The stomach was dissected out, rinsed, and kept in a 10% neutral formalin solution. After fixation, tissues were routinely processed and stained with hematoxylin and eosin for light microscopy. Lesion scores were evaluated in this study according to a published report three parameters were evaluated in relation to their severity; epithelial cell loss was given a score from 0 to 3, hemorrhage was given a score from 0 to 4, and a score from 0 to 2 was given for inflammatory cell infiltration. The total score was given by the summation of the three scores.

gastric mucosa [6] = test: Evaluation of gastrointestinal toxicity (gastric ulcers); format: in vivo; settings: rat, 400 mg/kg orally, 4 h, mean ± standard deviation
Procedure: The gastric mucosa was carefully inspected for the occurrence of ulcers with the aid of an illuminated magnifying lens (l0×), the ulcer score was calculated according to published method and ulcer index was determined using the reported formula [60]. Ulcer index = 10/x, where x= total mucosal area/ total ulcerated area. All data are represented as mean ± standard deviation.
Rats were fasted for 24 h and then randomly allocated into the following groups to evaluate the potential toxicity of dendrimers on the stomach:
Group 3 received G1 (400 mg/kg) orally.
Group 4 received G2 (400 mg/kg) orally.
Group 5 received G3 (400 mg/kg) orally.
Group 6 received G4 (400 mg/kg) orally.
Animals were left for 4 h and then sacrificed under light anesthesia for stomach dissection. The gastric mucosa was carefully inspected for the occurrence of ulcers with the aid of an illuminated magnifying lens (l0x), the ulcer score was calculated based on published study and ulcer index was determined using the reported formula [60]. Ulcer index = 10/x, where x= total mucosal area/total ulcerated area.

MTT cell viability assay = format: cell-based; settings: human, mean ± SE, unit inferred
Procedure: (§1) The cytotoxic activities of the tested dendrimers against the breast cancer cell line MCF-7, embryonic kidney non-cancer cells (HEK-293), and hepatic cellular Hep-G2 were evaluated by MTT assay. A cell suspension was diluted with complete medium to a concentration of 5 × 10^4 cell/ml. By using a micropipette, 100 μL aliquots of the cell suspension were pipetted into all wells of 96-well plate (~5000 cells/well). These plates were incubated at 37 °C for one day to allow cell attachment. Then, cells were treated using 100 µL of growth medium consisting of 0, 0.001, 0.01, 0.1, 1, 10, or 100 μL of the freshly prepared aspirin-based dendrimers in triplicate. After that, cells were rinsed with phosphate-buffered saline (PBS), and an appropriate fresh medium including 20 μL MTT in phosphate-buffered saline (0.5 mg/mL) was added to the test wells. The 96-well plate was then further incubated in a carbon dioxide incubator at 37 °C for another 4 h, and the MTT assay study was done. The MTT assay procedure is based on the reduction of the tetrazolium salt MTT to unsolvable purple formazan via metabolically effective cells, making their activities quantifiable via spectrophotometry. Consequently, the produced formazan crystals were dissolved in 120 μL DMSO solvent for each well. Cell viability was established by measuring the absorbance of each well at 570 nm, and at a reference wavelength of 630 nm using an ELISA plate reader. […] Vinblastine was used as the standard and the corresponding IC50 values were determined by Equation (1):(1) IC50(%)=ControlOD−CompoundOD/ControlODx 100

[7] = tested on: breast cancer cell lines (MCF-7); test: MTT cell viability assay; format: cell-based; settings: Homo sapiens, MCF7, mean ± SE, unit inferred, read-out: Cytotoxicity (IC50), MCF-7
Procedure: as §1

[8] = tested on: carrageenan-induced paw edema; test: Carrageenan-induced rat paw edema assay; format: in vivo; settings: oral
Procedure: The present study was performed on adult albino Wistar rats, weighing 185 ± 200 g. Animals were kept in the animal house at MSA university. They were kept under suitable conditions of humidity and temperature (humidity 60–70%, temperature 24 ± 2 °C). The animals were fed by standard pellet chow (El-Nasr chemical Co., Cairo, Egypt) and were given access to water ad libitum.
Inflammation was induced in all groups by carrageenan (0.2 mL, 1% saline solution), which was injected subcutaneously into the plantar surface of the right hind paw. Group 1 served as a normal group, group 2 received carrageenan only, and groups 3, 4, 5, 6, and 7 received the test drugs orally 1 h before carrageenan (n = 6). Edema was measured in diameter (mm) at 1 h, 2 h, 4 h, and 6 h after carrageenan injection using a digital caliper. Percentage edema inhibition was calculated as [1 − (sample diameter/control diameter)] × 100. All data of the paw edema are represented as mean ± SD.
The strength of the tested dendrimers to inhibit edema (% edema inhibition) was calculated based on the changes in paw thickness (edema diameter, mm) at different periods; 1 h, 2 h, 4 h, and 6 h (Table 4).

PGE2 = test: Determination of rat serum PGE2; format: in vivo; settings: 6 h after carrageenan, oral
Procedure: Inflammation was induced in all groups by carrageenan (0.2 mL, 1% saline solution) injected subcutaneously into the plantar surface of the right hind paw. Group 1 served as a normal group, group 2 received carrageenan only, and groups 3, 4, 5, 6, and 7 received the test drugs orally 1 h before carrageenan (n = 6) [58]. Blood samples were collected from all groups and centrifuged for 15 minutes to separate the serum and measure serum PGE2 Pg/mL. Percentage inhibition was calculated as [1 − (sample PGE2 concentration/control PGE2 concentration)] × 100. All data of the PGE2 concentration are represented as mean ± SD.
The ability of the dendrimers to inhibit PGE2 was evaluated by measuring the rat serum concentration of PGE2 in blood samples collected after 6 h from subcutaneous carrageenan injection.

[9] = rat stomach, compared to the aspirin group
[10] = HEK-293 embryonic kidney non-cancer cells, normal cell line, read-out: Cytotoxicity (IC50), HEK-293
[11] = Hep-G2 cells, read-out: Cytotoxicity (IC50), Hep-G2
[12] = 15 mg/mL, agar well diffusion, 37 °C 24 h, mean ± SE

## CC1(C)S[C@@H]2[C@H](NC(=O)[C@H](N)c3ccccc3)C(=O)N2[C@H]1C(=O)O [Ampicillin]
[1]
  zone of inhibition at 15000 µg/mL: 15 ± 0.05 mm
[2]
  zone of inhibition at 15000 µg/mL: 25 ± 0.06 mm

## CS(=O)(=O)c1ccc(C2=C(c3ccccc3)C(=O)OC2)cc1 [Rofecoxib]
COX-2
  IC50: 25 nM

## CC(=O)Oc1ccccc1C(=O)O [Aspirin, acetylsalicylic acid]
Candida albicans; Candida albicans, 24 h, read-out: inhibition zone, C. albicans
  zone of inhibition at 15000 µg/mL: 29 ± 0.09 mm
Aspergillus niger; Aspergillus niger, 24 h, read-out: inhibition zone, A. niger
  zone of inhibition at 15000 µg/mL: 30 ± 0.1 mm
[3]
  zone of inhibition at 15000 µg/mL: 18 ± 0.06 mm
[1]
  zone of inhibition at 15000 µg/mL: 30 ± 0.07 mm
[4]
  zone of inhibition at 15000 µg/mL: 26 ± 0.11 mm
Gastric mucosa [5]; [9]
  Epithelial loss score: significantly higher epithelial loss score
  Hemorrhage score: highest score of hemorrhage
Gastric mucosa [5]; rat, 400 mg/kg orally, H&E
  Histopathological findings of stomach tissue: serious histopathological alterations
Gastric mucosa [6]
  Gastric Mucosal Lesions, Ulcer Area: 86.9 ± 9.51 mm²
  Gastric Mucosal Lesions, Ulcer Score: 5.00 ± 0.00
MTT cell viability assay; [10]
  IC50: 240.18 ± 0.03 µg/mL (≈ 1330 µM)
MTT cell viability assay; [11]
  IC50: 192.4 ± 0.04 µg/mL (≈ 1070 µM)
[7]
  IC50: 208.96 ± 0.05 µg/mL (≈ 1160 µM)
[2]
  zone of inhibition at 15000 µg/mL: 23 ± 0.08 mm
[8]; 1 h after carrageenan
  % Inhibition of edema 1 h: 34.82%
[8]; 2 h after carrageenan
  % Inhibition of edema 2 h: 42.23%
[8]; 4 h after carrageenan
  % Inhibition of edema 4 h: 35.08%
[8]; 6 h after carrageenan
  % Inhibition of edema 6 h: 47.38%
PGE2
  PGE2 Inhibition%: 72.40%

## C[C@@H]1[C@H](O)[C@@H](C)/C=C/C=C/CC/C=C/C=C/C=C/C=C/C(O[C@H]2O[C@H](C)[C@@H](O)[C@H](N)[C@@H]2O)CC2O[C@](O)(CC(O)C(O)CCC(O)CC(O)CC(O)CC(=O)O[C@H]1C)CC(O)C2C(=O)O (some centres unmarked) [Nystatin]
Candida albicans; [12]
  inhibition zone, C. albicans: 21 ± 0.11 mm
Aspergillus niger; [12]
  inhibition zone, A. niger: 15 ± 0.08 mm

## COc1cccc2c1C(=O)c1c(O)c3c(c(O)c1C2=O)C[C@@](O)(C(=O)CO)C[C@@H]3O[C@H]1C[C@H](N)[C@H](O)[C@H](C)O1 [Doxorubicin]
MTT cell viability assay; [10]
  IC50: 205.07 ± 0.05 µg/mL (≈ 377 µM)
MTT cell viability assay; [11]
  IC50: 4.8 ± 0.09 µg/mL (≈ 8.83 µM)
[7]
  IC50: 5.7 ± 0.07 µg/mL (≈ 10.5 µM)

## CNC(C)C1CCC(N)C(OC2C(N)CC(N)C(OC3OCC(C)(O)C(NC)C3O)C2O)O1 (centres unmarked) [Gentamicin]
[3]
  zone of inhibition at 15000 µg/mL: 17 ± 0.04 mm
[4]
  zone of inhibition at 15000 µg/mL: 22 ± 0.02 mm

Source: paper PMC8615929, “Aspirin-Based Organoiron Dendrimers as Promising Anti-Inflammatory, Anticancer, and Antimicrobial Drugs” (Biomolecules, 2021)
